Measurements taken from US9187455B2, “Substituted pyridazines as PDE10A inhibitors” (Hoffmann-La Roche Inc., priority 2009, dated 2015).

Biological target: T1, PDE10A2 (Homo sapiens, UniProt Q9Y233)
T1 construct: residues serine 449 to aspartate 789; His6 (H6) with Gateway linker and thrombin cleavage site (N, cleaved yes); made in house; host or cells: E. coli BL21(DE3) pLysS
Test: PDE10A2 Scintillation Proximity Assay (SPA), [3H]-cGMP hydrolysis
Format: biochemical
Details: catalytic domain of human PDE10A2 (S449-D789), 0.25 nM enzyme, 50 nM cGMP + 50 nM [3H]-cGMP, 30 minutes at room temperature; read-out: PDE10A2 inhibition IC50
Procedure: The following tests were carried out in order to determine the activity of the compounds of the present invention. PDE10 activity of the compounds of the present invention is determined using a Scintillation Proximity Assay (SPA)-based method similar to the one previously described (Fawcett, L. et al., ProcNatl Acad Sci USA (2000) 97(7):3702-3707).
PDE10A1 and PDE10A2 are two splice variants of PDE10A. There are these 2 splice variants known, which differ in the N-terminal part of the protein. The catalytic domains of PDE10A1 and PDE10A2 are identical. The assay for PDE10A2 described below is therefore also representative for PDE10A1 and also for PDE10A in general.
The PDE10A2 assay was performed in a two step procedure in 96-well micro titer plates. The reaction mixture of 80 μl contained 20 mM HEPES/10 mM MgCl2/[…] (pH 7.5), 50 nM cGMP (Sigma) and 50 nM [^3H]-cGMP (GE Healthcare), 0.25 nM PDE10A2 with or without a specific test compound. A range of concentrations of the potential inhibitor was used to generate data for calculating the concentration of inhibitor resulting in 50% of the effect (e.g. IC50, the concentration of the competitor inhibiting PDE10A2 activity 50%). Non-specific activity was tested without the enzyme. The reaction was initiated by addition of the substrate solution (cGMP and [^3H]-cGMP) and allowed to progress for 30 minutes at room temperature. The reaction was terminated by transferring 50 μl of the reaction mixture into an OptiPlate (Perkin Elmer) containing 25 μl of YSi-SPA scintillation beads (GE Healthcare) in 18 mM zinc sulphate solution (stop reagent). After 1 h under shaking, the plate was centrifuged one minute at 1000 rpm to allow beads to settle. Afterwards, radioactive counts were measured on a Perkin Elmer TopCount Scintillation plate reader.
The catalytic domain of human PDE10A2, residues serine 449 to aspartate 789, was amplified by PCR using cDNA (Origene) and the oligonucleotides 5′-GGGGACAAGTTTGT […]-3′ (with AttB1 recombination site in bold and thrombin protease cleavage site in italics) and 5′-[…]-3′ (with AttB2 recombination site in bold) which conferred Gateway recombination sites. The PCR product was used in a BP recombination reaction with pDONR221 to generate pENTR Thm-PDE10A2(S449-D789) which was DNA sequence verified and then used in an LR recombination reaction with a Gateway modified version of pET11a. The resulting expression vector, placT7.2H6-(gwl)-Thm-PDE10A2(S449-D789) was DNA sequence confirmed and transformed into E. coli strain BL21(DE3) pLysS and recombinant protein was produced in TB medium at 20° C. by induction to a final IPTG concentration of 0.5 mM at an optical density of 1.0 at 600 nm for 20 hours. About 30% of the protein was in the soluble fraction of the cell homogenate. The protein was purified using sequential chromatography on Ni-NTA and HiTrapQ/HiTrapS. After thrombin digest at room temperature a HiTrapChelating/HiTrap Benzamindin chromatography removed impurities, uncleaved protein and thrombin. Final purification of PDE10A2(S449-D789) was performed on a Superdex 75 size exclusion chromatography equilibrated with 25 mM HEPES pH 8.4, 0.15 M NaCl. The yield of pure protein was 2 mg/liter of culture volume is relatively low. The purity of the protein was >95%, monomeric and monodisperse as shown by SDS-PAGE, HPLC and analytical ultracentrifugation.

T1 sequence (Q9Y233 715-1055): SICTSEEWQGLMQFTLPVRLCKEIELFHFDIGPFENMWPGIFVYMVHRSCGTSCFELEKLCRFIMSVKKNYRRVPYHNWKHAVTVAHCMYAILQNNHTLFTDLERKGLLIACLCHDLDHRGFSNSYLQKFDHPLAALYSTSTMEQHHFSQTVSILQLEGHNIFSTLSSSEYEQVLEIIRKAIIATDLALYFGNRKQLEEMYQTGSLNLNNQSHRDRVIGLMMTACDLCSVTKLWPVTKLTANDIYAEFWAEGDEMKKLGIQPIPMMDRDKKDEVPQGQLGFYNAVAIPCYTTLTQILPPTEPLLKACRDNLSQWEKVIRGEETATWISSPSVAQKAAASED

Structure (SMILES)	IC50 [µM]
O=c1ccn(-c2ccncc2)nc1-c1ccnn1-c1ccc(Cl)cc1 [Example 6, 3-[2-(4-Chloro-phenyl)-2H-pyrazol-3-yl]-1-pyridin-4-yl-1H-pyridazin-4-one]	0.188
Cc1cc(-n2ccc(=O)c(-c3ccnn3-c3ccnc4ccccc34)n2)ccn1 [Example 79, 1-(2-Methyl-pyridin-4-yl)-3-(2-quinolin-4-yl-2H-pyrazol-3-yl)-1H-pyridazin-4-one]	0.012
O=c1ccn(-c2ccc(Cl)nc2)nc1-c1ccnn1-c1ccccc1F [Example 77, 1-(6-Chloro-pyridin-3-yl)-3-[2-(2-fluoro-phenyl)-2H-pyrazol-3-yl]-1H-pyridazin-4-one]	0.183
O=c1ccn(-c2cccnc2)nc1-c1ccnn1-c1cccc2cnccc12 [Example 86, 3-(2-Isoquinolin-5-yl-2H-pyrazol-3-yl)-1-pyridin-3-yl-1H-pyridazin-4-one]	0.05
O=c1ccn(-c2cccnc2)nc1-c1ccnn1-c1ccc2c(c1)OCCO2 [Example 34, 3-[2-(2,3-Dihydro-benzo[1,4]dioxin-6-yl)-2H-pyrazol-3-yl]-1-pyridin-3-yl-1H-pyridazin-4-one]	0.081
Cc1cncc(-n2ccc(=O)c(-c3ccnn3-c3cccc(F)c3)n2)c1 [Example 37, 3-[2-(3-Fluoro-phenyl)-2H-pyrazol-3-yl]-1-(5-methyl-pyridin-3-yl)-1H-pyridazin-4-one]	0.149
O=c1ccn(-c2ccncc2)nc1-c1ccnn1-c1ccnc(Cl)c1 [Example 23, 3-[2-(2-Chloro-pyridin-4-yl)-2H-pyrazol-3-yl]-1-pyridin-4-yl-1H-pyridazin-4-one]	1.21
NS(=O)(=O)c1ccc(-n2nccc2-c2nn(-c3ccncc3)ccc2=O)cc1 [Example 8, 4-[5-(4-Oxo-1-pyridin-4-yl-1,4-dihydro-pyridazin-3-yl)-pyrazol-1-yl]-benzenesulfonamide]	6.33
O=c1ccn(-c2ccnc(Cl)c2)nc1-c1ccnn1-c1ccnc2cc(Cl)ccc12 [Example 69, 1-(2-Chloro-pyridin-4-yl)-3-[2-(7-chloro-quinolin-4-yl)-2H-pyrazol-3-yl]-1H-pyridazin-4-one]	0.057
O=c1ccn(-c2cncc(C(F)(F)F)c2)nc1-c1ccnn1-c1cccc(Cl)c1 [Example 67, 3-[2-(3-Chloro-phenyl)-2H-pyrazol-3-yl]-1-(5-trifluoromethyl-pyridin-3-yl)-1H-pyridazin-4-one]	0.056
O=c1ccn(-c2ccnc(Cl)c2)nc1-c1ccnn1-c1cccc2ncccc12 [Example 58, 1-(2-Chloro-pyridin-4-yl)-3-(2-quinolin-5-yl-2H-pyrazol-3-yl)-1H-pyridazin-4-one]	0.089
O=c1ccn(-c2ccnc(Cl)c2)nc1-c1ccnn1-c1cccc2ccccc12 [Example 13, 1-(2-Chloro-pyridin-4-yl)-3-(2-naphthalen-1-yl-2H-pyrazol-3-yl)-1H-pyridazin-4-one]	0.011
O=c1ccn(-c2cncc(Cl)c2)nc1-c1ccnn1-c1cccc2ncccc12 [Example 60, 1-(5-Chloro-pyridin-3-yl)-3-(2-quinolin-5-yl-2H-pyrazol-3-yl)-1H-pyridazin-4-one]	0.078
Cc1cc(-n2ccc(=O)c(-c3ccnn3-c3cccc(F)c3)n2)ccn1 [Example 39, 3-[2-(3-Fluoro-phenyl)-2H-pyrazol-3-yl]-1-(2-methyl-pyridin-4-yl)-1H-pyridazin-4-one]	2.56
O=c1ccn(-c2ccncc2)nc1-c1ccnn1-c1ccncc1 [Example 31, 1-Pyridin-4-yl-3-(2-pyridin-4-yl-2H-pyrazol-3-yl)-1H-pyridazin-4-one]	0.811
N#Cc1cncc(-n2ccc(=O)c(-c3ccnn3-c3ccccc3F)n2)c1 [Example 87, 5-{3-[2-(2-Fluoro-phenyl)-2H-pyrazol-3-yl]-4-oxo-4H-pyridazin-1-yl}-nicotinonitrile]	0.477

Structure (SMILES)	IC50 [µM]
Cc1cc(-n2ccc(=O)c(-c3ccnn3-c3cccc4cnccc34)n2)ccn1 [Example 85, 3-(2-Isoquinolin-5-yl-2H-pyrazol-3-yl)-1-(2-methyl-pyridin-4-yl)-1H-pyridazin-4-one]	0.046
O=c1ccn(-c2cncc(Cl)c2)nc1-c1ccnn1-c1ccccc1F [Example 64, 1-(5-Chloro-pyridin-3-yl)-3-[2-(2-fluoro-phenyl)-2H-pyrazol-3-yl]-1H-pyridazin-4-one]	0.148
O=c1ccn(-c2ccc(C(F)(F)F)nc2)nc1-c1ccnn1-c1cccc2cnccc12 [Example 81, 3-(2-Isoquinolin-5-yl-2H-pyrazol-3-yl)-1-(6-trifluoromethyl-pyridin-3-yl)-1H-pyridazin-4-one]	0.107
O=c1ccn(-c2ccncc2)nc1-c1ccnn1-c1cccc2cnccc12 [Example 21, 3-(2-Isoquinolin-5-yl-2H-pyrazol-3-yl)-1-pyridin-4-yl-1H-pyridazin-4-one]	0.028
N#Cc1ccc(-n2ccc(=O)c(-c3ccnn3-c3ccccc3F)n2)cn1 [Example 76, 5-{3-[2-(2-Fluoro-phenyl)-2H-pyrazol-3-yl]-4-oxo-4H-pyridazin-1-yl}-pyridine-2-carbonitrile]	0.619
O=c1ccn(-c2cncc3ccccc23)nc1-c1ccnn1-c1cccc(Cl)c1 [Example 66, 3-[2-(3-Chloro-phenyl)-2H-pyrazol-3-yl]-1-isoquinolin-4-yl-1H-pyridazin-4-one]	0.1
C#Cc1cccc(-n2nccc2-c2nn(-c3ccncc3)ccc2=O)c1 [Example 99, 3-[2-(3-Ethynyl-phenyl)-2H-pyrazol-3-yl]-1-pyridin-4-yl-1H-pyridazin-4-one]	0.018
O=c1ccn(-c2ccncc2)nc1-c1ccnn1-c1ccccc1F [Example 4, 3-[2-(2-Fluoro-phenyl)-2H-pyrazol-3-yl]-1-pyridin-4-yl-1H-pyridazin-4-one]	0.115
O=c1ccn(-c2ccncc2)nc1-c1ccnn1-c1cccc2ccncc12 [Example 27, 3-(2-Isoquinolin-8-yl-2H-pyrazol-3-yl)-1-pyridin-4-yl-1H-pyridazin-4-one]	0.126
O=c1ccn(-c2ccncc2)nc1-c1ccnn1-c1ccccc1 [Example 30, 3-(2-Phenyl-2H-pyrazol-3-yl)-1-pyridin-4-yl-1H-pyridazin-4-one]	0.069
O=c1ccn(-c2ccc3cnccc3c2)nc1-c1ccnn1-c1cccc(F)c1 [Example 101, 3-[2-(3-Fluoro-phenyl)-2H-pyrazol-3-yl]-1-isoquinolin-6-yl-1H-pyridazin-4-one]	0.041
O=c1ccn(-c2cccnc2)nc1-c1ccnn1-c1cccc2ncccc12 [Example 84, 1-Pyridin-3-yl-3-(2-quinolin-5-yl-2H-pyrazol-3-yl)-1H-pyridazin-4-one]	0.169
O=c1ccn(-c2cncc(Cl)c2)nc1-c1ccnn1-c1ccnc2cc(Cl)ccc12 [Example 70, 1-(5-Chloro-pyridin-3-yl)-3-[2-(7-chloro-quinolin-4-yl)-2H-pyrazol-3-yl]-1H-pyridazin-4-one]	0.253
N#Cc1cc(-n2ccc(=O)c(-c3ccnn3-c3ccc4c(c3)OCCO4)n2)ccn1 [Example 43, 4-{3-[2-(2,3-Dihydro-benzo[1,4]dioxin-6-yl)-2H-pyrazol-3-yl]-4-oxo-4H-pyridazin-1-yl}-pyridine-2-carbonitrile]	0.663
O=c1ccn(-c2ccc(C(F)(F)F)nc2)nc1-c1ccnn1-c1ccccc1F [Example 75, 3-[2-(2-Fluoro-phenyl)-2H-pyrazol-3-yl]-1-(6-trifluoromethyl-pyridin-3-yl)-1H-pyridazin-4-one]	0.12
